From US20030191144A1, “Compounds, compositions and methods for modulating beta-amyloid production” (Active Pass Pharmaceuticals, Inc., priority 2001, published 2003)

System: Aβ40 production and/or release from SM-4 cells
Experiment: Aβ40 ELISA of culture media from SM-4 cells
Assay type: cell-based
Conditions: 10-500 μM, 16 hrs
Experimental: Cell Lines and Pharmacological Treatments. 293 EBNA cells (InVitrogen, Carlsbad, Calif.) stably transfected with Swedish mutant β-Amyloid Precursor Protein -695 (SM4 cells) were routinely maintained in DMEM supplemented with sodium pyruvate (1 mM) and 10% fetal bovine serum. Cells were seeded into poly-D-Lysine (SIGMA) coated 6-well plates at a density of 5-7×10^5 cells per well. Subsequently, the cells were rinsed in 1 ml of PBS and treated with 10-500 μM of pirinixic acid in serum-free/phenol red-free DMEM for 16 hours. Aβ Detection and Standardization. After the pharmacological treatment, the exposure media was collected and supplemented with 10% sample treatment buffer (40 mM sodium phosphate (pH 7.4), 40 mM triethanolamine, 0.1% Triton X-100, 200 mM NaCl, 2 mM EGTA, 0.1% Sodium azide), and assayed for either Aβ40 or Aβ42 by a calorimetric ELISA as per the manufacturer's protocol (Biosource International Inc, California). The cells were lysed in 0.1% Triton X-100 in PBS supplemented with 5 μM propridium iodide (Molecular Probes, Eugene, Oreg.) and incubated at 37° C. for 30 minutes prior to measuring fluorescence. Aβ40 and Aβ42 were standardized against propridium iodide fluorescence as a measure of total cell number. 293 EBNA cells (InVitrogen, Carlsbad, Calif.) stably transfected with Swedish mutant β-Amyloid Precursor Protein -695 (SM4 cells) were routinely maintained in DMEM supplemented with sodium pyruvate (1 mM) and 10% fetal bovine serum. […] The cells were lysed in 0.1% Triton X-100 in PBS supplemented with 5 μM propridium iodide (Molecular Probes, Eugene, Oreg.) and incubated at 37° C. for 30 minutes prior to measuring fluorescence. Aβ40 and Aβ42 were standardized against propridium iodide fluorescence as a measure of total cell number. […] The cells were lysed in 0.1% Triton X-100 in PBS supplemented with 5 μM propridium iodide (Molecular Probes, Eugene, Oreg.) and incubated at 37° C. for 30 minutes prior to measuring fluorescence. Aβ40 and Aβ42 were standardized against propridium iodide fluorescence as a measure of total cell number.

Cc1cccc(Nc2cc(Cl)nc(SCC(=O)O)n2)c1C [pirinixic acid]
change in Aβ40 production and/or release: no significant change
